Experiments:
[1] = system: PD-L1 on CD34+ cells; test: Prostaglandin library screening and FACS of PD-L1 on human CD34+ cells; format: cell-based; settings: for capacity to upregulate PD-L1 (MFI) in library screening: 10 μM, CD34+ cells from T1D patients; for PD-L1 expression by FACS analysis: CD34+ cells, 10 μM pulsed at 24 and 48 hours
Text: FIGS. 17A-17J show prostaglandins enhance PD-L1 expression on human CD34^+ cells. (FIG. 17A-17B) Results of screening of a prostaglandin small molecule library tested for the ability to upregulate PD-L1 (MFI) on CD34^+ cells obtained from T1D patients. The schematic of the experimental design is shown in (A). The 3-color coding shown in (FIG. 17B) represents lowest PD-L1 MFI values (blue), median PD-L1 MFI values (pink) and highest PD-L1 MFI values (red). (FIG. 17C-17D) Representative flow cytometric analysis and quantitative bar graph of PD-L1 expression on CD34^+ cells from T1D patients pre- and post-pharmacologic modulation with PGE2 as compared to CD34^+ cells obtained from healthy controls. (FIG. 17E) PD-L1 and CXCR4 expression (mRNA) fold change was quantified for CD34^+ cells pre- and post-modulation with PGE2. (FIG. 17F) Migration assay using CD34^+ cells pre- and post-modulation with PGE2. (FIG. 17G) Confocal imaging of CD34^+ cells pre- and post-modulation with PGE2, showing DAPI (in blue) and PD-L1 (in green) staining. 63× magnification. Scale bar, 50 (FIG. 17H) IDO-1 expression (mRNA) fold change was quantified for CD34^+ cells pre- and post-modulation with PGE2. (FIG. 17I-17J) Representative flow cytometric analysis (FIG. 17I) and quantitative bar graph (FIG. 17J) of PD-L1 expression on CD34^+ cells from T1D patients pre- and post-pharmacologic modulation with 4 small molecule PGE2 agonists. All data are expressed as mean±SEM. *P<0.05, **P<0.001. Abbreviations: MFI, mean fluorescence intensity.
Pharmacological modulation of human CD34+ cells. 1×105 of isolated human CD34+ HSPCs (purity 99%) were cultured in 200 μl of StemSpan SFEM II media (SEMCELL Technologies Inc., Cambridge, MA, USA), and each compound in the Prostaglandin Screening Library II (Cayman Chemicals, Ann Arbor, MI), was added individually at day 0 and at day 1 at a concentration of 10 μM as previously reported by the inventors and others (9, 21). In another assay, isolated CD34+ cells from freshly isolated human PBMCs or from cryopreserved PBMCs, and processed as described earlier, were cultured in the presence of a cocktail of cytokines containing: 10 μg/ml heparin (SEMCELL Technologies Inc., Cambridge, MA, USA), 10 ng/ml human SCF (Miltenyi Biotec, San Diego, CA), 20 ng/ml human TPO (Miltenyi Biotec, San Diego, CA), 10 ng/ml human FGF-1 (Miltenyi Biotec, San Diego, CA), 100 ng/ml IGFBP2 (R&D Systems, Inc., Minneapolis, MN), and 500 ng/ml Angptl3 (R&D Systems, Inc., Minneapolis, MN). PGE2 (PromoKine, PromoCell Gmbh, Germany) was added by pulsing the culture at 0, 24h, 72h and 6 days with 2 μl of diluted PGE2 (10 μM). Cells were cultured for 7 days at 37° C. in 5% CO2, and CD34+ cells were then subjected to FACS analysis and were run on a FACSCelesta™ (Becton Dickinson, Franklin Lakes, NJ). Data were analyzed using FlowJo software version 8.7.3 (Treestar, Ashland, OR). The different cytokines used here and their related concentration as well as the choice of the incubation timing was used as previously reported in the literature (22).
Prostaglandin library screening. PGE2 has been described as a small molecule known to enhance the homing and engraftment of HSPCs. It was therefore sought to screen all known types of prostaglandins using the Prostaglandin Screening Library II, which contains 64 small molecules. Each small molecule contained in the library was first screened for its capacity to upregulate PD-L1 in human CD34+ cells isolated from T1D patients (FIG. 17A-17B). CD34+ cells isolated from T1D patients were cultured in StemSpan SFEMII and pulsed with each PG (prostaglandin) small molecule contained in the aforementioned library at a concentration of 10 μM at 24 and 48h. Using FACS analysis, the MFI (mean fluorescence intensity) of PD-L1 expression was calculated following treatment with each small molecule used to modulate CD34+ cells as compared to untreated/unmodulated CD34+ cells (FIG. 17B). […]

[2] = system: CD34+ cells; test: qRT-PCR of PD-L1, CXCR4 and IDO-1 in prostaglandin-modulated CD34+ cells; format: cell-based, human; settings: CD34+ cells upon modulation
Procedure: qRT-PCR. RNA was extracted from CD34+ cells using Direct-Zol™ RNA Kits (Zymo, Irvine, CA, USA) and Trizol Reagent (Invitrogen Carlsbad, CA), RNA quality was assessed by Multiskan™ GO Microplate spectrophotometer and the ratios of absorbance at 260 nm and 280 nm were assessed for all the samples. Only samples with RNA ratios within 1.9 were included in the present study. cDNA synthesis was made from purified total RNA by reverse transcription using High capacity cDNA Reverse Transcription RETROscript® Kit (Thermo Fisher Scientific, Waltham, MA, USA) followed by a pre-amplification using Taqman PreAmp Kit (Applied Biosystems) according to the manufacturer's instructions. qRT-PCR analysis was performed using TaqMan assays (Life Technologies, Grand Island, NY) containing PCR primers and TaqMan probes according to the manufacturer's instructions. Normalized expression values were determined using the ΔCt method. Quantitative reverse transcriptase polymerase chain reaction (qRT-PCR) data were normalized for the expression of GAPDH. qRT-PCR reactions were performed in triplicate in a 96-well format using an Applied Biosystems 7900HT fast real-time PCR instrument. Relative expression was calculated using the comparative threshold cycle method as previously described (23, 24). For two-group comparisons, a Student's t test was employed. Reported below are the main characteristics of the primers used: […]
Prostaglandin library screening. PGE2 has been described as a small molecule known to enhance the homing and engraftment of HSPCs. It was therefore sought to screen all known types of prostaglandins using the Prostaglandin Screening Library II, which contains 64 small molecules. Each small molecule contained in the library was first screened for its capacity to upregulate PD-L1 in human CD34+ cells isolated from T1D patients (FIG. 17A-17B). CD34+ cells isolated from T1D patients were cultured in StemSpan SFEMII and pulsed with each PG (prostaglandin) small molecule contained in the aforementioned library at a concentration of 10 μM at 24 and 48h. Using FACS analysis, the MFI (mean fluorescence intensity) of PD-L1 expression was calculated following treatment with each small molecule used to modulate CD34+ cells as compared to untreated/unmodulated CD34+ cells (FIG. 17B). A heat map was generated depicting the degree to which each PG small molecule affected PD-L1 expression on CD34+ cells (FIG. 17B), thus allowing for the evaluation of PG candidates. Based on its ability to modulate PD-L1 expression, PGE2 was selected as a candidate for further study; in addition, PGE2 has been described in the literature and has been tested in clinical trials as a potential therapy for enhancing HSPC engraftment following cord blood transplantation (21). Isolated CD34+ cells from healthy control patients (CTRL) and from T1D patients were cultured in StemSpan SFEMII and pulsed with 10 μM of PGE2 at 24 hours and 48 hours. […] It was therefore sought to perform a migration assay in order to assess the homing properties of PGE2-treated CD34+ cells (FIG. 17F).

[3] = system: NEU1, MTOR, MYC, IGF1R, VEGFA, RB1 in MDA-MB-231 cells; test: mRNA of validated miRNA target genes (transfection control) in MDA-MB-231 cells; format: cell-based, human; settings: VEGFA or RB1 as named for each agent, 48 h after transfection
Procedure: MDA-MB-231 breast cancer cells were cultured in DMEM high glucose medium (Gibco, Thermo Fisher Scientific; Waltham, MA USA) supplemented with 10% heat-inactivated fetal calf serum (Gibco, Thermo Fisher Scientific), 100 units/ml penicillin, 100 μg/ml streptomycin, and 2 mM L-glutamine. 2×10^5 cells were seeded in each well of a 6-well plate and transfected with 10 pmol of the miRNA mimic or miRNA mimic negative control, or 100 pmol of the anti-miR or anti-miR negative control (all from Exiqon, Qiagen) using the Lipofectamine RNAiMAX transfection reagent (Invitrogen, Thermo Fisher Scientific) in a final culture medium volume of 2 ml, following manufacturer's instructions. […] Forty-eight hours after transfection, cells were collected from each well for RNA extraction, cell lysate preparation and FACS analysis. RNA was extracted using Direct-zol RNA miniprep plus (Zymo research, Irvine, CA, USA) and RNA quality was checked and then retro-transcribed using RETROscript® Kit (Fisher Scientific) following manufacturer's instructions. Cell lysates were obtained in RIPA buffer (50 mmol/1 Tris-HCl, pH 8.0, 1% Triton-x, 0.5% sodium deoxycholate, 0.1% SDS, 150 mmol/1 sodium chloride) with protease inhibitor cocktail (Roche).
qRT-PCR for PD-L1 analysis was performed on retro-transcribed cDNA using SYBR® Green dye (Life Technologies, Thermo Fisher Scientific). Amplification was performed on a QuantStudio S6 Real Time PCR system (Thermo Fisher Scientific). To confirm a successful transfection, the mRNA level of genes known to be controlled by the targeted miRNAs were evaluated by SYBR® Green dye (Life Technologies, Thermo Fisher Scientific) according to the manufacturer's instructions. Normalized expression values were determined using the ΔΔCt method in treated as compared to negative treated samples, using GAPDH mRNA as endogenous reference. The miRNA-targeted genes tested, along with forward and reverse primer sequences used for their amplification, are listed in Table 13.
To determine if targeting the miRNA network decreases PD-L1 expression in human cancer setting, PD-L1-expressing MDA-MB-231 human breast cancer cells were transfected with a set of miRNA mimics or anti-miRs to either increase or decrease the function of a set of miRNAs not previously known to affect PD-L1 (miR-125b, miR-99a, miR-744, mir-599, miR-511, miR-206, miR-26b). The effect of treatment with miRNA mimics and anti-miRs on the percentage of PD-L1-expressing cells, as well as on PD-L1 mRNA and protein levels, was investigated. miRNA mimic/anti-miR treated-cells were compared to corresponding mimic/anti-miR negative control-treated cells by flow cytometric analysis, Real Time PCR and western blot to assess percentage of PD-L1-expressing cells, PD-L1 mRNA, and PD-L1 protein levels, respectively. A successful miRNA mimic/anti-miR transfection was confirmed by the detection of changed mRNA levels of the validated miRNA targets NEU1 (for miR-125b mimic), MTOR (for miR-99a mimic), MYC (for miR-744 mimic and miR-599 anti-miR), IGF1R (for miR-511 mimic), VEGFA (for miR-206 anti-miR) and RB1 (for miR-26b anti-miR) in treated cells (FIG. 22A). […] Lysates of miR-511 mimic and miR-206 anti-miR treated cells were not available for western blot analysis.

CCCCC[C@H](O)/C=C/[C@H]1[C@H](O)CC(=O)[C@@H]1CC(=O)CCCCC(=O)O [6-keto PGE1]
capacity to upregulate PD-L1 (MFI) in library screening [1]: strongest capacity
PD-L1 expression by FACS analysis [1]: robust upregulation

CCCCC(C)(C)[C@H](O)/C=C/[C@H]1[C@H](O)CC(=O)[C@@H]1C/C=C\CCCC(=O)Oc1ccc(NC(=O)c2ccc(NC(C)=O)cc2)cc1 [16,16-dimethyl PGE2 4-(4-acetamidobenzamido) phenyl ester]
capacity to upregulate PD-L1 (MFI) in library screening [1]: strongest capacity
PD-L1 expression by FACS analysis [1]: robust upregulation
PD-L1 mRNA expression by RT-PCR [2]: marked upregulation

CCCCCCC[C@H](O)/C=C/[C@H]1[C@H](O)CC(=O)[C@@H]1C/C=C\CCCC(=O)O [20-ethyl PGE2]
capacity to upregulate PD-L1 (MFI) in library screening [1]: strongest capacity
PD-L1 expression by FACS analysis [1]: robust upregulation
PD-L1 mRNA expression by RT-PCR [2]: marked upregulation

miR-26b anti-miR: Anti-miR, CUAUCCUGAAUUACUUGA, SEQ ID NO: 8 (listed as RNA, chemistry not given here)
mRNA levels of the validated miRNA target [3]: changed

miR-99a mimic: miRNA mimic, AACCCGUAGAUCCGAUCUUGUG, SEQ ID NO: 3 (listed as RNA, chemistry not given here)
mRNA levels of the validated miRNA target [3]: changed

miR-206 anti-miR: Anti-miR, CACACACUUCCUUACAUUCC, SEQ ID NO: 7 (listed as RNA, chemistry not given here)
mRNA levels of the validated miRNA target [3]: changed

miR-511 mimic: miRNA mimic, AAUGUGUAGCAAAAGACAGA, SEQ ID NO: 2 (listed as RNA, chemistry not given here)
mRNA levels of the validated miRNA target [3]: changed

miR-744 mimic: miRNA mimic, CUGUUGCCACUAACCUCAACCU, SEQ ID NO: 4 (listed as RNA, chemistry not given here)
mRNA levels of the validated miRNA target [3]: changed

Source: patent US11879137B2, “Treatment of type 1 diabetes and autoimmune diseases or disorders” (THE CHILDREN'S MEDICAL CENTER CORPORATION, priority 2017, dated 2024)
